Laboratory results: ChEMBL document CHEMBL4184230, “Design, synthesis and biological evaluation of novel pyrazolo-oxothiazolidine derivatives as antiproliferative agents against human lung cancer cell line A549” (Bioorg Med Chem Lett, 2018)
≈ marks a conversion by molar mass, not a printed value.

test system: A549; assay: Antiproliferative activity against human A549 cells incubated for 96 hrs by MTT assay; assay type: functional, cell-based; settings: A549, 96 h

Row | Compound | IC50 [µg/mL]
1 | COC(=O)/C=C1/SC(N2N=C(c3cc4ccccc4o3)CC2c2cccc(Br)c2)=NC1=O (stereo unspecified) | 4.29 (≈ 8.41 µM)
2 | CCOC(=O)/C=C1/SC(N2N=C(c3cc4ccccc4o3)CC2c2ccc(OC)cc2)=NC1=O (stereo unspecified) | 1.21 (≈ 2.54 µM)
3 | COC(=O)/C=C1/SC(N2N=C(c3cc4ccccc4o3)CC2c2ccc(F)cc2)=NC1=O (stereo unspecified) | 0.808 (≈ 1.8 µM)
4 | COC(=O)/C=C1/SC(N2N=C(c3cc4ccccc4o3)CC2c2ccc(Cl)cc2)=NC1=O (stereo unspecified) | 1.08 (≈ 2.31 µM)
5 | CCOC(=O)/C=C1/SC(N2N=C(c3cc4ccccc4o3)CC2c2ccc(F)cc2)=NC1=O (stereo unspecified) | 0.93 (≈ 2.01 µM)
6 | COC(=O)/C=C1/SC(N2N=C(c3cc4ccccc4o3)CC2c2ccc(OC)cc2)=NC1=O (stereo unspecified) | 2.44 (≈ 5.3 µM)
7 | CCOC(=O)/C=C1/SC(N2N=C(c3cc4ccccc4o3)CC2c2cccc(Br)c2)=NC1=O (stereo unspecified) | > 5
8 | CNC(=O)c1cc(Oc2ccc(NC(=O)Nc3ccc(Cl)c(C(F)(F)F)c3)cc2)ccn1 [SORAFENIB] | 3.78 (≈ 8.13 µM)
9 | CCOC(=O)/C=C1/SC(N2N=C(c3cc4ccccc4o3)CC2c2ccc(Cl)cc2)=NC1=O (stereo unspecified) | > 5
10 | COC(=O)/C=C1/SC(N2N=C(c3cc4ccccc4o3)CC2c2ccc(OC)c(OC)c2)=NC1=O (stereo unspecified) | 0.967 (≈ 1.97 µM)
11 | CCOC(=O)/C=C1/SC(N2N=C(c3cc4ccccc4o3)CC2c2ccc(OC)c(OC)c2)=NC1=O (stereo unspecified) | 3.42 (≈ 6.76 µM)
